Values of other authors, collected in paper PMC7904743, “WIDOCK: a reactive docking protocol for virtual screening of covalent inhibitors” (Journal of Computer-Aided Molecular Design, 2021).
Read-outs that look alike come from different tables or passages of the source.

Columns and labels:
[1] = thiol reactivity, cited from earlier work
OTUB2 = conditions: experimental actives if % labeling higher than 50%; cited from earlier work
NUDT7 = conditions: protein labeling at 200 μM; experimental actives if % labeling higher than 50%; cited from earlier work
[2] = natural log of average rate constant k
[3] = natural logarithm of average rate constant

Row | SMILES | ln(avg k) [1, 2] | ln(avg k) [1, 3] | OTUB2 % labeling (OTUB2) | NUDT7 % labeling (NUDT7)
1 | CC(NC(=O)CCl)c1ccccc1Br (stereo not drawn) [PCM-0102256, CC(NC(=O)CCl)c1ccccc1Br] | -16.021 | -16.021 | 29% | 19%
2 | O=C(CCl)N1CCN(C(=O)Nc2ccccc2)CC1 [PCM-0102257, O=C(CCl)N1CCN(C(=O)Nc2ccccc2)CC1] | -15.051 | -15.051 | 0% | 7%
3 | O=C(CCl)Nc1cc(Cl)ccc1-n1cncn1 [PCM-0102258, O=C(CCl)Nc1cc(Cl)ccc1-n1cncn1] | -15.839 | -15.839 | 0% | 21%
4 | CN(CC(=O)NC(C)(C)C)C(=O)CCl [PCM-0102259, CN(CC(=O)NC(C)(C)C)C(=O)CCl] | -16.044 | -16.044 | 0% | 0%
5 | Cc1c(C#N)c(NC(=O)CCl)n(-c2ccccc2)c1C [PCM-0102261, Cc1c(C#N)c(NC(=O)CCl)n(-c2ccccc2)c1C] | -16.038 | -16.038 | 9% | 30%
6 | Cc1nc(-c2cccc(NC(=O)CCl)c2)cs1 [PCM-0102262, Cc1nc(-c2cccc(NC(=O)CCl)c2)cs1] | -15.670 | -15.670 | 63% | 0%
7 | CC(C)C(C#N)N1CCN(C(=O)CCl)CC1 (stereo not drawn) [PCM-0102263, CC(C)C(C#N)N1CCN(C(=O)CCl)CC1] | -14.716 | -14.716 | 31% | 17%
8 | Cc1csc(N(C(=O)CCl)c2ccccc2)n1 [PCM-0102265, Cc1csc(N(C(=O)CCl)c2ccccc2)n1] | -15.232 | -15.232 | 6% | 19%
9 | O=C(CCl)N1c2ccccc2OCC1c1ccccc1 (stereo not drawn) [PCM-0102266, O=C(CCl)N1c2ccccc2OCC1c1ccccc1] | -16.335 | -16.335 | 0% | 11%
10 | CNC(=O)c1ccc(NC(=O)CCl)cc1 [PCM-0102267, CNC(=O)c1ccc(NC(=O)CCl)cc1] | -15.048 | -15.048 | 0% | 0%
11 | O=C(CCl)N1CCN(Cc2cccc(Cl)c2)CC1 [PCM-0102269, O=C(CCl)N1CCN(Cc2cccc(Cl)c2)CC1] | -15.481 | -15.481 | 19% | 0%
12 | Cc1ccc(C(C)NC(=O)CCl)cc1C (stereo not drawn) [PCM-0102270, Cc1ccc(C(C)NC(=O)CCl)cc1C] | -16.558 | -16.558 | 51% | 0%
13 | CC(C)N(C(=O)CCl)c1ccccc1 [PCM-0102272, CC(C)N(C(=O)CCl)c1ccccc1] | -15.780 | -15.780 | 0% | 22%
14 | CC(=O)c1ccc(N2CCN(C(=O)CCl)CC2)c(F)c1 [PCM-0102273, CC(=O)c1ccc(N2CCN(C(=O)CCl)CC2)c(F)c1] | -15.374 | -15.374 | 0% | 20%
15 | O=C(CCl)Nc1cccnc1Cl [PCM-0102274, O=C(CCl)Nc1cccnc1Cl] | -16.315 | -16.315 | 0% | 0%
16 | CC(NC(=O)CCl)c1cccc2ccccc12 (stereo not drawn) [PCM-0102275, CC(NC(=O)CCl)c1cccc2ccccc12] | -16.435 | -16.435 | 73% | 32%
17 | O=C(CCl)Nc1ccc(OC(F)(F)F)cc1 [PCM-0102276, O=C(CCl)Nc1ccc(OC(F)(F)F)cc1] | -15.893 | -15.893 | 36% | 24%
18 | O=C(CCl)N1CCN(Cc2ccc(Cl)s2)CC1 [PCM-0102277, O=C(CCl)N1CCN(Cc2ccc(Cl)s2)CC1] | -15.648 | -15.648 | 9% | 0%
19 | O=C(CCl)Nc1ccc(I)cc1 [PCM-0102278, O=C(CCl)Nc1ccc(I)cc1] | -15.784 | -15.784 | 24% | 9%
20 | CNC(=O)CNC(=O)CCl [PCM-0102279, CNC(=O)CNC(=O)CCl] | -16.473 | -16.473 | 10% | 0%
21 | O=C(CCl)NCc1cccs1 [PCM-0102280, O=C(CCl)NCc1cccs1] | -16.889 | -16.889 | 22% | 0%

Row | SMILES | ln(avg k) [1, 2] | ln(avg k) [1, 3] | OTUB2 % labeling (OTUB2) | NUDT7 % labeling (NUDT7)
22 | O=C(CCl)N1CCN(S(=O)(=O)c2ccccc2F)CC1 [PCM-0102281, O=C(CCl)N1CCN(S(=O)(=O)c2ccccc2F)CC1] | -15.235 | -15.235 | 0% | 14%
23 | CC(=O)c1ccccc1NC(=O)CCl [PCM-0102282, CC(=O)c1ccccc1NC(=O)CCl] | -16.331 | -16.331 | 0% | 0%
24 | CC(=O)c1cccc(N2Cc3ccccc3C2=NC(=O)CCl)c1 [PCM-0102283, CC(=O)c1cccc(N2Cc3ccccc3C2=NC(=O)CCl)c1] | -16.303 | -16.303 | 0% | 0%
25 | O=C(CCl)Nc1cc(F)ccc1F [PCM-0102284, O=C(CCl)Nc1cc(F)ccc1F] | -15.941 | -15.941 | 28% | 0%
26 | CN(C)S(=O)(=O)c1ccc2c(c1)CCCN2C(=O)CCl [PCM-0102285, CN(C)S(=O)(=O)c1ccc2c(c1)CCCN2C(=O)CCl] | -15.789 | -15.789 | 0% | 0%
27 | N#Cc1c(NC(=O)CCl)sc2c1CCCCC2 [PCM-0102286, N#Cc1c(NC(=O)CCl)sc2c1CCCCC2] | -16.020 | -16.020 | 0% | 33%
28 | O=C(CCl)N1CCN(Cc2cccc3ccccc23)CC1 [PCM-0102287, O=C(CCl)N1CCN(Cc2cccc3ccccc23)CC1] | -15.635 | -15.635 | 29% | 0%
29 | O=C(CCl)Nc1cc(Cl)ccc1Cl [PCM-0102288, O=C(CCl)Nc1cc(Cl)ccc1Cl] | -16.095 | -16.095 | 0% | 6%
30 | O=C(CCl)Nc1cccc(C(F)(F)F)c1 [PCM-0102290, O=C(CCl)Nc1cccc(C(F)(F)F)c1] | -15.516 | -15.516 | 26% | 12%
31 | O=C(CCl)NC1CS(=O)(=O)CC1Cl (stereo not drawn) [PCM-0102291, O=C(CCl)NC1CS(=O)(=O)CC1Cl] | -16.221 | -16.221 | 0% | 12%
32 | CC1CCCCC1NC(=O)NC(=O)CCl (stereo not drawn) [PCM-0102292, CC1CCCCC1NC(=O)NC(=O)CCl] | -15.785 | -15.785 | 24% | 0%
33 | O=C(CCl)N1CCSC1c1ccccc1F (stereo not drawn) [PCM-0102293, O=C(CCl)N1CCSC1c1ccccc1F] | -15.618 | -15.618 | 12% | 83%
34 | O=C(CCl)Nc1nc2ccc(F)cc2s1 [PCM-0102294, O=C(CCl)Nc1nc2ccc(F)cc2s1] | -15.413 | -15.413 | 0% | 89%
35 | O=C(CCl)N1N=C(c2cccs2)CC1c1ccco1 (stereo not drawn) [PCM-0102295, O=C(CCl)N1N=C(c2cccs2)CC1c1ccco1] | -14.545 | -14.545 | 6% | 46%
36 | Cn1nc(-c2ccc(Cl)cc2)cc1NC(=O)CCl [PCM-0102296, Cn1nc(-c2ccc(Cl)cc2)cc1NC(=O)CCl] | -15.558 | -15.558 | 38% | 54%
37 | O=C(CCl)N1CCN(c2ccccc2Cl)CC1 [PCM-0102297, O=C(CCl)N1CCN(c2ccccc2Cl)CC1] | -14.978 | -14.978 | 0% | 35%
38 | O=C(CCl)N1CCCC1c1ccc2c(c1)OCCO2 (stereo not drawn) [PCM-0102298, O=C(CCl)N1CCCC1c1ccc2c(c1)OCCO2] | -15.407 | -15.407 | 0% | 100%
39 | O=C(CCl)Nc1cc2c(cc1Br)OCCO2 [PCM-0102299, O=C(CCl)Nc1cc2c(cc1Br)OCCO2] | -16.302 | -16.302 | 67% | 27%
40 | CCc1cc(C(=O)NNC(=O)CCl)sc1C [PCM-0102300, CCc1cc(C(=O)NNC(=O)CCl)sc1C] | -17.034 | -17.034 | 83% | 11%
41 | CC(C)(C)NC(=O)CN1CCN(C(=O)CCl)CC1 [PCM-0102302, CC(C)(C)NC(=O)CN1CCN(C(=O)CCl)CC1] | -15.639 | -15.639 | 13% | 8%
42 | CN(C)C(=O)CN1CCN(C(=O)CCl)CC1 [PCM-0102304, CN(C)C(=O)CN1CCN(C(=O)CCl)CC1] | -16.500 | -16.500 | 0% | 0%
